Data from PubChem BioAssay (NCI).
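Test compounds were applied to cells in 96-well plates for 48 hours at 5 doses. GI50 = concentration required for 50% inhibition of growth. The concentration for full growth arrest is given as TGI.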

What was measured:
Test in all cases: DTP human tumour cell line panel, 48 h
[1] = tested on: T-47D breast
[2] = tested on: MALME-3M melanoma
[3] = tested on: MCF7 breast
[4] = tested on: K-562 leukemia
[5] = tested on: OVCAR-5 ovarian
[6] = tested on: HCT-116 colon
[7] = tested on: OVCAR-4 ovarian
[8] = tested on: PC-3 prostate
[9] = tested on: SF-539 CNS
[10] = tested on: CCRF-CEM leukemia
[11] = tested on: SF-295 CNS
[12] = tested on: M14 melanoma
[13] = tested on: U251 CNS
[14] = tested on: NCI-H522 lung
[15] = tested on: HOP-92 NSCLC
[16] = tested on: RXF 393 renal
[17] = tested on: SK-MEL-2 melanoma
[18] = tested on: NCI-H23 lung
[19] = tested on: A498 renal
[20] = tested on: SN12C renal
[21] = tested on: SNB-75 CNS
[22] = tested on: HT29 colon
[23] = tested on: SR leukemia
[24] = tested on: BT-549 breast
[25] = tested on: HS 578T breast
[26] = tested on: A549 NSCLC
[27] = tested on: UO-31 renal
[28] = tested on: SW-620 colon
[29] = tested on: NCI-H460 lung
[30] = tested on: LOX IMVI melanoma
[31] = tested on: UACC-62 melanoma
[32] = tested on: EKVX NSCLC
[33] = tested on: SK-MEL-5 melanoma
[34] = tested on: UACC-257 melanoma
[35] = tested on: HOP-62 NSCLC
[36] = tested on: COLO 205 colon
[37] = tested on: OVCAR-8 ovarian
[38] = tested on: CAKI-1 renal
[39] = tested on: SK-MEL-28 melanoma
[40] = tested on: KM12 colon
[41] = tested on: MOLT-4 leukemia
[42] = tested on: RPMI-8226 leukemia
[43] = tested on: ACHN renal
[44] = tested on: HL-60(TB) leukemia
[45] = tested on: 786-0 renal
[46] = tested on: HCC-2998 colon
[47] = tested on: SNB-19 CNS
[48] = tested on: DU-145 prostate
[49] = tested on: MDA-MB-435
[50] = tested on: SF-268 CNS
[51] = tested on: NCI-H226 lung
[52] = tested on: SK-OV-3 ovarian
[53] = tested on: NCI/ADR-RES ovarian
[54] = tested on: MDA-MB-231 breast
[55] = tested on: OVCAR-3 ovarian

## CC(=O)Oc1ccccc1C(=O)/C=C/c1cccc([N+](=O)[O-])c1
[1]
  GI50: 10.8 µM
  TGI: 44 µM
[2]
  GI50: 13.6 µM
  TGI: 30.5 µM
[3]
  GI50: 1.99 µM
  TGI: 10.6 µM
[4]
  GI50: 3.14 µM
  TGI: > 100 µM
[5]
  GI50: 4.75 µM
  TGI: 17.1 µM
[6]
  GI50: 1.66 µM
  TGI: 3.07 µM
[7]
  GI50: 5.95 µM
  TGI: 23.1 µM
[8]
  GI50: 3.69 µM
  TGI: 15.3 µM
[9]
  GI50: 2.08 µM
  TGI: 4.93 µM
[10]
  GI50: 3.06 µM
  TGI: > 100 µM
[11]
  GI50: 1.88 µM
  TGI: 4.16 µM
[12]
  GI50: 3.93 µM
  TGI: 14 µM
[13]
  GI50: 2.02 µM
  TGI: 4.78 µM
[14]
  GI50: 15.3 µM
  TGI: 36.3 µM
[15]
  GI50: 7.91 µM
  TGI: 22.5 µM
[16]
  GI50: 1.88 µM
  TGI: 3.48 µM
[17]
  GI50: 15.1 µM
  TGI: 29.4 µM
[18]
  GI50: 5.09 µM
  TGI: 19.6 µM
[19]
  GI50: 2.54 µM
  TGI: 17.6 µM
[20]
  GI50: 2.53 µM
  TGI: 6.79 µM
[21]
  GI50: 2.94 µM
  TGI: 14.4 µM
[22]
  GI50: 2.36 µM
  TGI: 4.92 µM
[23]
  GI50: 2.25 µM
  TGI: 7.7 µM
[24]
  GI50: 2.28 µM
  TGI: 5.41 µM
[25]
  GI50: 1.78 µM
  TGI: 8.16 µM
[26]
  GI50: 5.48 µM
  TGI: 23.3 µM
[27]
  GI50: 1.52 µM
  TGI: 2.96 µM
[28]
  GI50: 1.87 µM
  TGI: 3.9 µM
[29]
  GI50: 2.4 µM
  TGI: 9.4 µM
[30]
  GI50: 1.56 µM
  TGI: 3.33 µM
[31]
  GI50: 3.29 µM
  TGI: 12.2 µM
[32]
  GI50: 11.3 µM
  TGI: 26.6 µM
[33]
  GI50: 3.03 µM
  TGI: 9.07 µM
[34]
  GI50: 6.99 µM
  TGI: 20.8 µM
[35]
  GI50: 2.5 µM
  TGI: 7.8 µM
[36]
  GI50: 3.29 µM
  TGI: 11.5 µM
[37]
  GI50: 3.11 µM
  TGI: 10.4 µM
[38]
  GI50: 2.95 µM
  TGI: 14.9 µM
[39]
  GI50: 5.56 µM
  TGI: 21.2 µM
[40]
  GI50: 2.4 µM
  TGI: 6.23 µM
[41]
  GI50: 3.15 µM
  TGI: > 100 µM
[42]
  GI50: 3.18 µM
  TGI: 16.1 µM
[43]
  GI50: 2.29 µM
  TGI: 4.99 µM
[44]
  GI50: 3.26 µM
  TGI: 9.51 µM
[45]
  GI50: 1.83 µM
  TGI: 3.6 µM
[46]
  GI50: 2.3 µM
  TGI: 4.97 µM
[47]
  GI50: 4.43 µM
  TGI: 15.3 µM
[48]
  GI50: 4.37 µM
  TGI: 15.8 µM
[49]
  GI50: 1.65 µM
  TGI: 3.55 µM
[50]
  GI50: 3.58 µM
  TGI: 12.4 µM
[51]
  GI50: 10.9 µM
  TGI: 30.6 µM
[52]
  GI50: 12.9 µM
  TGI: 29.2 µM
[53]
  GI50: 3.88 µM
  TGI: 18.7 µM
[54]
  GI50: 3.48 µM
  TGI: 13.5 µM
[55]
  GI50: 2.6 µM
  TGI: 6.17 µM
